The values below come from PubChem BioAssay (NCI).

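Grown in 96-well plates, cells were treated for 48 hours with each compound at five concentrations. Insufficient inhibition: endpoint recorded as highest concentration tested. Here, GI50 denotes the concentration required for 50% inhibition of growth. TGI is the concentration that stops growth completely.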

The first experiment has as its system HCC-2998 colon. The experiment in a line: inhibition of tumour cell growth, NCI panel, 48 h.
In turn, `Cc1ccccc1S(=O)(=O)OC1NS(=O)(=O)c2ccccc21` (stereo not given) came in with a TGI above 100 µM.
For the compound `O=C(Nc1ccc(Cl)cc1)c1cccc(NC2=C(Cl)C(=O)N(Cc3ccccc3)C2=O)c1`, the GI50 is 3.83 µM and the TGI is 20 µM.
For `CC[C@H](Nc1ncnc2nc[nH]c12)c1oc2ccccc2c(=O)c1-c1cccc(F)c1`, in that order: 35.7 µM and above 100 µM.
As for `COc1cc(NCc2ccc3oc(=O)c(-c4ccccc4)nc3c2)cc(OC)c1OC`, the TGI is above 10 µM.
Take `COc1ccc(-c2nnc(COc3ccc(NC(=O)Nc4cc(C(F)(F)F)cc(C(F)(F)F)c4)cc3F)o2)cc1`: the GI50 is 2.42 µM and the TGI was determined as 5.92 µM.
Compound `COC1=CC(=O)C(C2CC(=O)c3c(O)cc(O)cc3O2)=CC1=O` (stereo not given) had a TGI of 32.1 µM.
With `COc1cc(/C=C/c2cc(O)c(C(C)=O)c(O)c2)cc2c1O[C@]1(C)CC[C@@H](O)C(C)(C)[C@H]1C2`, the GI50 is 6.7 µM and the TGI turned out to be 32.4 µM.
For the compound `Cc1cc2c(cc1Cl)SC(N(N(C)C)S(=O)(=O)c1ccc(Cl)cc1)=NS2(=O)=O`, the GI50 is 17 µM and the TGI came out at 44.6 µM.
With `Nc1ncnc2n[nH]c(Nc3ccc(F)cc3)c12`, the GI50 was 51.9 µM and the TGI is above 100 µM.
On to `Cc1cc(I)cc(CN(C)CCCN2CCCCC2)c1O`, for which the GI50 is 14 µM and the TGI was 27.2 µM.
As to `CC(C)(C)OC(=O)N[C@H]1CC2(C=C(Cl)C(=O)C(Cl)=C2)OC1=O`, the TGI was determined as 31.8 µM.
For the compound `COc1cccc(-c2nc(-c3ccc(NC(=O)C(C)C)cc3)[nH]c2-c2ccnc(Br)c2)c1`, the GI50 was 2.03 µM and the TGI was 6.01 µM.
For `O=C(CSc1ccc(Cl)cc1)Nc1ccc(-c2nc3ccccc3s2)c(Cl)c1`, the GI50 is 3.09 µM and the TGI turned out to be 16.3 µM.

Another experiment relates to MCF7 breast. The experiment in a line: inhibition of tumour cell growth, NCI panel, 48 h.
As to `Cc1ccccc1S(=O)(=O)OC1NS(=O)(=O)c2ccccc21` (stereo not given), the TGI was above 100 µM.
Turning to `O=C(Nc1ccc(Cl)cc1)c1cccc(NC2=C(Cl)C(=O)N(Cc3ccccc3)C2=O)c1`, the GI50 is 10.3 µM and the TGI was 42.3 µM.
For `CC[C@H](Nc1ncnc2nc[nH]c12)c1oc2ccccc2c(=O)c1-c1cccc(F)c1`, in that order: 21.1 µM and above 100 µM.
Compound `COc1cc(NCc2ccc3oc(=O)c(-c4ccccc4)nc3c2)cc(OC)c1OC` showed a TGI above 10 µM.
Take `COc1ccc(-c2nnc(COc3ccc(NC(=O)Nc4cc(C(F)(F)F)cc(C(F)(F)F)c4)cc3F)o2)cc1`: the GI50 is 2 µM and the TGI came to 5.04 µM.
Consider `COC1=CC(=O)C(C2CC(=O)c3c(O)cc(O)cc3O2)=CC1=O` (stereo not given), for which the TGI is 42.3 µM.
For the compound `COc1cc(/C=C/c2cc(O)c(C(C)=O)c(O)c2)cc2c1O[C@]1(C)CC[C@@H](O)C(C)(C)[C@H]1C2`, the GI50 was 3.31 µM and the TGI stood at 22.2 µM.
Turning to `Cc1cc2c(cc1Cl)SC(N(N(C)C)S(=O)(=O)c1ccc(Cl)cc1)=NS2(=O)=O`, the GI50 is 12.6 µM and the TGI is 48.3 µM.
For `Nc1ncnc2n[nH]c(Nc3ccc(F)cc3)c12`, in that order: 27.7 µM and 89.3 µM.
For `Cc1cc(I)cc(CN(C)CCCN2CCCCC2)c1O`, in that order: 16.7 µM and 35.9 µM.
In the case of `CC(C)(C)OC(=O)N[C@H]1CC2(C=C(Cl)C(=O)C(Cl)=C2)OC1=O`, the TGI stood at 23.3 µM.
As to `COc1cccc(-c2nc(-c3ccc(NC(=O)C(C)C)cc3)[nH]c2-c2ccnc(Br)c2)c1`, the GI50 is 1.67 µM and the TGI worked out at 5.2 µM.
As for `O=C(CSc1ccc(Cl)cc1)Nc1ccc(-c2nc3ccccc3s2)c(Cl)c1`, the GI50 was 4.67 µM and the TGI was 39.2 µM.

A further experiment relates to MOLT-4 leukemia. The experiment in a line: inhibition of tumour cell growth, NCI panel, 48 h.
For the compound `Cc1ccccc1S(=O)(=O)OC1NS(=O)(=O)c2ccccc21` (stereo not given), the TGI was above 100 µM.
On to `O=C(Nc1ccc(Cl)cc1)c1cccc(NC2=C(Cl)C(=O)N(Cc3ccccc3)C2=O)c1`, for which the GI50 is 12.1 µM and the TGI is 24.5 µM.
Regarding `CC[C@H](Nc1ncnc2nc[nH]c12)c1oc2ccccc2c(=O)c1-c1cccc(F)c1`, the GI50 is 13.1 µM and the TGI was 49.1 µM.
The compound `COc1cc(NCc2ccc3oc(=O)c(-c4ccccc4)nc3c2)cc(OC)c1OC` registered a TGI above 10 µM.
Consider `COc1ccc(-c2nnc(COc3ccc(NC(=O)Nc4cc(C(F)(F)F)cc(C(F)(F)F)c4)cc3F)o2)cc1`, for which the GI50 is 2.68 µM and the TGI is 14.1 µM.
In the case of `COC1=CC(=O)C(C2CC(=O)c3c(O)cc(O)cc3O2)=CC1=O` (stereo not given), the TGI was 5.12 µM.
For the compound `COc1cc(/C=C/c2cc(O)c(C(C)=O)c(O)c2)cc2c1O[C@]1(C)CC[C@@H](O)C(C)(C)[C@H]1C2`, the GI50 was 3.22 µM and the TGI was 34.7 µM.
For `Cc1cc2c(cc1Cl)SC(N(N(C)C)S(=O)(=O)c1ccc(Cl)cc1)=NS2(=O)=O`, in that order: 35 µM and above 100 µM.
On the same counts, the results for `Nc1ncnc2n[nH]c(Nc3ccc(F)cc3)c12` are 31.7 µM and above 100 µM.
On the same counts, the results for `Cc1cc(I)cc(CN(C)CCCN2CCCCC2)c1O` are 3.2 µM and 13.4 µM.
Compound `CC(C)(C)OC(=O)N[C@H]1CC2(C=C(Cl)C(=O)C(Cl)=C2)OC1=O` displayed a TGI of 15.7 µM.
On to `COc1cccc(-c2nc(-c3ccc(NC(=O)C(C)C)cc3)[nH]c2-c2ccnc(Br)c2)c1`, for which the GI50 was 2.56 µM and the TGI is above 100 µM.
With `O=C(CSc1ccc(Cl)cc1)Nc1ccc(-c2nc3ccccc3s2)c(Cl)c1`, the GI50 was 4.37 µM and the TGI was above 100 µM.

The subject of a further experiment is SW-620 colon. The experiment in a line: inhibition of tumour cell growth, NCI panel, 48 h.
In the case of `Cc1ccccc1S(=O)(=O)OC1NS(=O)(=O)c2ccccc21` (stereo not given), the TGI is above 100 µM.
For `O=C(Nc1ccc(Cl)cc1)c1cccc(NC2=C(Cl)C(=O)N(Cc3ccccc3)C2=O)c1`, the GI50 is 16.3 µM and the TGI is 43.6 µM.
For the compound `CC[C@H](Nc1ncnc2nc[nH]c12)c1oc2ccccc2c(=O)c1-c1cccc(F)c1`, the GI50 is 32.5 µM and the TGI was above 100 µM.
`COc1cc(NCc2ccc3oc(=O)c(-c4ccccc4)nc3c2)cc(OC)c1OC`: the TGI was above 10 µM.
For the compound `COc1ccc(-c2nnc(COc3ccc(NC(=O)Nc4cc(C(F)(F)F)cc(C(F)(F)F)c4)cc3F)o2)cc1`, the GI50 was 2.19 µM and the TGI stood at 5.72 µM.
Consider `COC1=CC(=O)C(C2CC(=O)c3c(O)cc(O)cc3O2)=CC1=O` (stereo not given), for which the TGI was 44.4 µM.
As to `COc1cc(/C=C/c2cc(O)c(C(C)=O)c(O)c2)cc2c1O[C@]1(C)CC[C@@H](O)C(C)(C)[C@H]1C2`, the GI50 was 5.52 µM and the TGI was above 100 µM.
Take `Cc1cc2c(cc1Cl)SC(N(N(C)C)S(=O)(=O)c1ccc(Cl)cc1)=NS2(=O)=O`: the GI50 is 32.5 µM and the TGI was above 100 µM.
With `Nc1ncnc2n[nH]c(Nc3ccc(F)cc3)c12`, the GI50 was 18.2 µM and the TGI is above 100 µM.
For `Cc1cc(I)cc(CN(C)CCCN2CCCCC2)c1O`, the GI50 is 14.6 µM and the TGI turned out to be 27.7 µM.
Turning to `CC(C)(C)OC(=O)N[C@H]1CC2(C=C(Cl)C(=O)C(Cl)=C2)OC1=O`, the TGI worked out at 19.1 µM.
Regarding `COc1cccc(-c2nc(-c3ccc(NC(=O)C(C)C)cc3)[nH]c2-c2ccnc(Br)c2)c1`, the GI50 was 3.52 µM and the TGI is above 100 µM.
Turning to `O=C(CSc1ccc(Cl)cc1)Nc1ccc(-c2nc3ccccc3s2)c(Cl)c1`, the GI50 is 3.67 µM and the TGI came out at 83.4 µM.

Another experiment relates to K-562 leukemia. The experiment in a line: inhibition of tumour cell growth, NCI panel, 48 h.
As for `Cc1ccccc1S(=O)(=O)OC1NS(=O)(=O)c2ccccc21` (stereo not given), the TGI is above 100 µM.
`O=C(Nc1ccc(Cl)cc1)c1cccc(NC2=C(Cl)C(=O)N(Cc3ccccc3)C2=O)c1`: the GI50 was 5.83 µM and the TGI was 28.3 µM.
For `CC[C@H](Nc1ncnc2nc[nH]c12)c1oc2ccccc2c(=O)c1-c1cccc(F)c1`, the GI50 was 17.4 µM and the TGI was above 100 µM.
Regarding `COc1cc(NCc2ccc3oc(=O)c(-c4ccccc4)nc3c2)cc(OC)c1OC`, the TGI is above 10 µM.
Regarding `COc1ccc(-c2nnc(COc3ccc(NC(=O)Nc4cc(C(F)(F)F)cc(C(F)(F)F)c4)cc3F)o2)cc1`, the GI50 was 2.66 µM and the TGI worked out at 13.5 µM.
For `COC1=CC(=O)C(C2CC(=O)c3c(O)cc(O)cc3O2)=CC1=O` (stereo not given), the TGI amounted to 40.8 µM.
Consider `COc1cc(/C=C/c2cc(O)c(C(C)=O)c(O)c2)cc2c1O[C@]1(C)CC[C@@H](O)C(C)(C)[C@H]1C2`, for which the GI50 is 3.64 µM and the TGI was above 100 µM.
As to `Cc1cc2c(cc1Cl)SC(N(N(C)C)S(=O)(=O)c1ccc(Cl)cc1)=NS2(=O)=O`, the GI50 was 31.8 µM and the TGI is above 100 µM.
`Nc1ncnc2n[nH]c(Nc3ccc(F)cc3)c12`: the GI50 is 15.6 µM and the TGI is above 100 µM.
For `Cc1cc(I)cc(CN(C)CCCN2CCCCC2)c1O`, in that order: 11.1 µM and 23.1 µM.
Compound `CC(C)(C)OC(=O)N[C@H]1CC2(C=C(Cl)C(=O)C(Cl)=C2)OC1=O` gave a TGI of 7.41 µM.
In the case of `COc1cccc(-c2nc(-c3ccc(NC(=O)C(C)C)cc3)[nH]c2-c2ccnc(Br)c2)c1`, the GI50 was 3.07 µM and the TGI was above 100 µM.
As for `O=C(CSc1ccc(Cl)cc1)Nc1ccc(-c2nc3ccccc3s2)c(Cl)c1`, the GI50 is 4.14 µM and the TGI was above 100 µM.
